Tests used:
[1] = biological target: T1, HCV genotype 1b NS5B protein containing the S282T mutation (Hepatitis C virus genotype 1b, UniProt Q9WMX2, S2701T); assay: HCV Polymerase Enzyme Assay, S282T mutant; format: biochemical
T1 construct: HCV genotype 1b NS5B protein were used to generate recombinant HCV polymerases (with a deletion of the 21 carboxy terminal amino acids); made in house
Text: (§1) Test compounds in the form of nucleoside triphosphates were examined for inhibitory activity against purified HCV polymerase in a standard assay. Bacterial expression constructs encoding the approximately 65 kDa HCV genotype 1b NS5B protein were used to generate recombinant HCV polymerases (with a deletion of the 21 carboxy terminal amino acids). Both the wild-type genotype 1b protein and protein containing the S282T mutation were expressed and purified for use in the enzymatic activity assay.
(§2) The enzymatic activity assay measured the inhibitory effect of increasing concentrations of test compound on the incorporation of α-[^33P]-labeled nucleotide into trichloroacetic acid-precipitable material. Recombinant polymerase and synthetic RNA template were combined in reaction buffer containing ribonucleoside triphosphates, α-[^33P]-labeled nucleotide and eight concentrations of test compound in three-fold dilutions. Reactions were incubated for two hours at 30° C.
(§3) Reactions were terminated by the addition of ice-cold trichloroacetic acid and sodium pyrophosphate to promote precipitation of newly-synthesized ribonucleic acid. Precipitable material from the reactions was collected by filtration onto 96-well filter plates, washed extensively with water, and quantified by liquid scintillation.
(§4) The inhibitory activity of test compounds was determined by fitting results to dose-response curves using XLfit software.

[2] = biological target: T2, wild-type HCV genotype 1b NS5B protein (recombinant HCV polymerase) (Hepatitis C virus genotype 1b, UniProt Q9WMX2); assay: HCV Polymerase Enzyme Assay, wild-type; format: biochemical
T2 construct: HCV genotype 1b NS5B protein were used to generate recombinant HCV polymerases (with a deletion of the 21 carboxy terminal amino acids); made in house
Text: as §1, §2, §3, §4

[3] = Cytotoxicity evaluation, CellTiter-Blue Cell Viability Assay; format: cell-based; conditions: human, Zluc cells (HCV replicon)
Description: For cytotoxicity evaluation, Zluc cells were treated with compound as described herein, and cell viability was monitored using the CellTiter-Blue Cell Viability Assay (Promega) by adding 20 μL of the assay solution to each well. The plates were then incubated at 37° C./5% CO2 for at least 3 hours. Fluorescence was detected in plates using excitation and emission wavelengths of 560 and 590 nm, respectively, in a Victor^3 V 1420 multilabel counter (Perkin Elmer) and CC50 values were determined using Microsoft Excel and XLfit 4.1 software.

[4] = tested on: HCV genotype 1b replicon in Huh-7-derived cell line (Zluc); assay: HCV Replicon Assay (luciferase reporter); format: cell-based; conditions: Hepatitis C virus; Zluc cells, 72 hours of incubation, luciferase readout
Description: Huh-7-derived cell line (Zluc) that harbors an HCV genotype 1b replicon and a luciferase reporter gene was grown in Dulbecco's Modified Eagle Medium (DMEM) supplemented with 10% fetal bovine serum, 2 mM GlutaMAX, 1% MEM nonessential amino acids, 100 IU/mL penicillin, 100 μg/mL streptomycin, and 0.5 mg/mL Geneticin® (G418). For dose response testing the cells were seeded in 96-well plates at 7.5×10^3 cells per well in a volume of 50 μL, and incubated at 37° C./5% CO2. Drug solutions were made up freshly in Huh-7 media as 2× stocks. Ten additional 5-fold dilutions were prepared from these stocks in DMEM without G418. At least three hours after Zluc cells were seeded, drug treatment was initiated by adding 50 μL of drug dilutions to the plates in duplicate. Final concentrations of drug ranged from 100 μM to 0.0000512 μM. Cells were then incubated at 37° C./5% CO2. Alternatively, compounds were tested at two concentrations (1 μM and 10 μM). […] After 72 hours of incubation, the inhibition of HCV replication was measured by quantification of photons emitted after mono-oxygenation of 5′-fluoroluciferin to oxyfluoroluciferin by firefly luciferase. For this, media was removed from the plates via gentle tapping. Fifty microliters of ONE-glo luciferase assay reagent was added to each well. The plates were shaken gently for 3 min at room temperature and luminescence was measured on a Victor^3 V 1420 multilabel counter (Perkin Elmer) with a 1 second read time using a 700 nm cut-off filter. The EC50 values were calculated from dose response curves from the resulting best-fit equations determined by Microsoft Excel and XLfit 4.1 software. When screening at two fixed concentrations, the results were expressed as % inhibition at 1 μM and 10 μM.

SMILES | IC50 [1] | IC50 [2] | CC50 at 72 h [3] | EC50 [4]
CO[C@]1(COP(=O)(O)OP(=O)(O)OP(=O)(O)O)O[C@@H](n2ccc(N)nc2=O)[C@H](O)[C@@H]1O [Compound 9f] | 0.25 to 1 µM | < 0.25 µM | – | –
CO[C@]1(CO)O[C@@H](n2ccc(N)nc2=O)[C@H](O)[C@@H]1F [Compound 5c] | – | – | > 50 µM | > 10 µM
CO[C@]1(COP(=O)(O)OP(=O)(O)O)O[C@@H](n2ccc(=O)[nH]c2=O)[C@H](O)[C@@H]1O [Compound 17a] | – | > 10 µM | – | –
CO[C@]1(COP(=O)(N[C@H](C)C(=O)OC(C)C)Oc2ccccc2)O[C@@H](n2ccc(N)nc2=O)[C@H](O)[C@@H]1O (stereo partly drawn) [Compound 13a] | – | – | > 50 µM | > 10 µM
CO[C@]1(CO)O[C@@H](n2ccc(=O)[nH]c2=O)[C@H](N=[N+]=[N-])[C@@H]1O [Compound 23] | – | – | > 50 µM | > 10 µM
CO[C@]1(COP(=O)(N[C@H](C)C(=O)OC(C)C)Oc2ccccc2)O[C@@H](n2ccc(=O)[nH]c2=O)[C@H](N=[N+]=[N-])[C@@H]1O (stereo partly drawn) [Compound 123] | – | – | > 50 µM | > 10 µM
CO[C@]1(COP(=O)(O)O)O[C@@H](n2ccc(=O)[nH]c2=O)[C@H](O)[C@@H]1O [Compound 18a] | – | > 10 µM | – | –
CO[C@]1(COP(=O)(O)OP(=O)(O)OP(=O)(O)O)O[C@@H](n2cnc3c(=O)[nH]c(N)nc32)[C@@H](N=[N+]=[N-])[C@@H]1O [Compound 220] | – | 1 to 10 µM | – | –
CO[C@]1(COP(=O)(O)OP(=O)(O)OP(=O)(O)O)O[C@@H](n2cnc3c(=O)[nH]c(N)nc32)[C@@H](N)[C@@H]1O [Compound 230] | – | 1 to 10 µM | – | –
CO[C@@]1(COP(=O)(O)OP(=O)(O)OP(=O)(O)O)C[C@@H](O)[C@H](n2ccc(=O)[nH]c2=O)O1 [Compound 9d] | – | 1 to 10 µM | – | –
CC(C)O[C@]1(CO)O[C@@H](n2ccc(=O)[nH]c2=O)[C@H](F)[C@@H]1O [Compound 7b] | – | – | > 50 µM | > 10 µM
CO[C@]1(CO)O[C@@H](n2ccc(=O)[nH]c2=O)[C@H](O)[C@@H]1F [Compound 2c] | – | – | > 50 µM | > 10 µM
CO[C@H]1[C@H](n2ccc(=O)[nH]c2=O)O[C@@](CO)(OC)[C@H]1O [Compound 24] | – | – | > 50 µM | > 10 µM
CO[C@]1(COP(=O)(O)OP(=O)(O)OP(=O)(O)O)O[C@@H](n2ccc(=O)[nH]c2=O)[C@H](O)[C@@H]1O [Compound 9a] | 0.25 to 1 µM | 0.25 to 1 µM | – | –
CO[C@]1(COP(=O)(N[C@@H](C)C(=O)OC(C)C)OCCSC(=O)C(C)(C)C)O[C@@H](n2ccc(=O)[nH]c2=O)[C@H](O)[C@@H]1O (stereo partly drawn) [Compound 14a] | – | – | > 50 µM | > 10 µM
CO[C@]1(COP(=O)(O)OP(=O)(O)OP(=O)(O)O)O[C@@H](n2ccc(=O)[nH]c2=O)[C@H](O)[C@@H]1N [Compound 9e] | – | > 10 µM | – | –
CO[C@]1(COP(=O)(O)OP(=O)(O)OP(=O)(O)O)O[C@@H](n2ccc(=O)[nH]c2=O)[C@H](N=[N+]=[N-])[C@@H]1O [Compound 223] | – | > 10 µM | – | –

SMILES | IC50 [1] | IC50 [2] | CC50 at 72 h [3] | EC50 [4]
CO[C@H]1[C@H](n2ccc(=O)[nH]c2=O)O[C@@](COP(=O)(O)OP(=O)(O)OP(=O)(O)O)(OC)[C@H]1O [Compound 224] | – | > 10 µM | – | –
CO[C@@]1(CO)C[C@@H](O)[C@H](n2ccc(=O)[nH]c2=O)O1 [Compound 2d] | – | – | > 50 µM | > 10 µM
CO[C@]1(CO)O[C@@H](n2ccc(N)nc2=O)[C@H](O)[C@@H]1O [Compound 5a2] | – | – | > 50 µM | > 10 µM
CO[C@]1(CO)O[C@@H](n2cnc3c(=O)[nH]c(N)nc32)[C@@H](N=[N+]=[N-])[C@@H]1O [Compound 20] | – | – | > 50 µM | > 10 µM
CCO[C@]1(CO)O[C@@H](n2ccc(=O)[nH]c2=O)[C@H](O)[C@@H]1O [Compound 6a] | – | – | > 50 µM | > 10 µM
CO[C@]1(CO)O[C@@H](n2ccc(=O)[nH]c2=O)[C@H](F)[C@@H]1O [Compound 2b] | – | – | > 50 µM | > 10 µM
CO[C@]1(COP(=O)(O)OP(=O)(O)OP(=O)(O)O)O[C@@H](n2ccc(N)nc2=O)[C@H](O)[C@@H]1F [Compound 9g] | 0.25 to 1 µM | 0.25 to 1 µM | – | –
CO[C@]1(COP(=O)(O)OP(=O)(O)OP(=O)(O)O)O[C@@H](n2cnc3c(=O)[nH]c(N)nc32)[C@H](F)[C@@H]1O [Compound 222] | 0.25 to 1 µM | < 0.25 µM | – | –
C#CCO[C@]1(CO)O[C@@H](n2ccc(=O)[nH]c2=O)[C@H](O)[C@@H]1O [Compound 8a] | – | – | > 50 µM | > 10 µM
CO[C@]1(COP(=O)(O)OP(=O)(O)OP(=O)(O)O)O[C@@H](n2ccc(=O)[nH]c2=O)[C@H](F)[C@@H]1O [Compound 9b] | – | 1 to 10 µM | – | –
CO[C@]1(CO)O[C@@H](n2cnc3c(=O)[nH]c(N)nc32)[C@H](N=[N+]=[N-])[C@@H]1O [Compound 21] | – | – | > 50 µM | > 10 µM
CO[C@]1(COP(=O)(N[C@@H](C)C(=O)OC(C)C)OCCSC(=O)C(C)(C)C)O[C@@H](n2ccc(N)nc2=O)[C@H](O)[C@@H]1O (single isomer, unassigned) [Compound 16a] | – | – | > 50 µM | > 10 µM
CO[C@]1(CO)O[C@@H](n2ccc(=O)[nH]c2=O)[C@H](O)[C@@H]1O [Compound 2a] | – | – | > 50 µM | > 10 µM
CO[C@]1(COP(=O)(O)OP(=O)(O)OP(=O)(O)O)O[C@@H](n2ccc(=O)[nH]c2=O)[C@H](O)[C@@H]1F [Compound 9c] | – | 0.25 to 1 µM | – | –
CC(C)O[C@]1(CO)O[C@@H](n2ccc(=O)[nH]c2=O)[C@H](O)[C@@H]1O [Compound 7a] | – | – | > 50 µM | > 10 µM
CO[C@]1(COP(=O)(O)OP(=O)(O)OP(=O)(O)O)O[C@@H](n2ccc(=O)[nH]c2=O)[C@H](N)[C@@H]1O [Compound 233] | – | 1 to 10 µM | – | –
CO[C@]1(CO)O[C@@H](n2ccc(=O)[nH]c2=O)[C@H](O)[C@@H]1N=[N+]=[N-] [Compound 2e] | – | – | > 50 µM | > 10 µM

Reference: patent publication US10683321B2, “4′-or nucleosides for the treatment of HCV” (IDENIX PHARMACEUTICALS LLC, priority 2013, dated 2020)
